Results: US7160888B2, “[1,8]naphthyridin-2-ones and related compounds for the treatment of schizophrenia” (Warner Lambert Company LLC, priority 2003, dated 2007)

The compounds below were run against D2 receptor (Homo sapiens, UniProt P14416) (assay: [3H]Thymidine uptake assay for D2 intrinsic activity). Details: Table 1; test compound 1 μM; 1 μM Quinpirole = 100% intrinsic activity.
Format: cell-based

Chain of D2 receptor (P14416 whole entry): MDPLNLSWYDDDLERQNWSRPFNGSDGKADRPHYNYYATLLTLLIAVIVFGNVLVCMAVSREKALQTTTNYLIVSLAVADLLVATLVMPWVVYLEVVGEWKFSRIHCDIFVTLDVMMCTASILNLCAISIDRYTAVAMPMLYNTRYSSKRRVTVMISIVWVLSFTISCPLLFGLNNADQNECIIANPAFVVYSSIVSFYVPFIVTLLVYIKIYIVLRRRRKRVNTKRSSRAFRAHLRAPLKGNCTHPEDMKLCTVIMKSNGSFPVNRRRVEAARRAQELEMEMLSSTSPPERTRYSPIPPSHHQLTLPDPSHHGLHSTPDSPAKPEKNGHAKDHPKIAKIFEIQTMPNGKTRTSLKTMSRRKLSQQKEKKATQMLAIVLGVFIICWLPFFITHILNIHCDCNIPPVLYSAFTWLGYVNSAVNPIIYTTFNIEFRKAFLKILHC

`O=C1COc2ccc(OCCCCN3CCN(c4cccc(Cl)c4Cl)CC3)nc2N1` [Example G3, 6-{4-[4-(2,3-Dichloro-phenyl)-piperazin-1-yl]-butoxy}-4H-pyrido[3,2-b][1,4]oxazin-3-one] and `O=c1ccc2cnc(OCCCCN3CCN(c4cccc5c4CCC5)CC3)nc2[nH]1` [Example H3, 2-[4-(4-Indan-4-yl-piperazin-1-yl)-butoxy]-8H-pyrido[2,3-d]pyrimidin-7-one] are the same in Emax at 1 µM: 25% for the first, 25% for the second.

First: CC(C)Oc1ccccc1N1CCN(CCCCOc2ncc3ccc(=O)[nH]c3n2)CC1 [Example H2, 2-{4-[4-(2-Isopropoxy-phenyl)-piperazin-1-yl]-butoxy}-8H-pyrido[2,3-d]pyrimidin-7-one]
Second: O=c1ccc2cnc(OCCCCN3CCN(c4cccc5ccccc45)CC3)nc2[nH]1 [Example H4, 2-[4-(4-Naphthalen-1-yl-piperazin-1-yl)-butoxy]-8H-pyrido[2,3-d]pyrimidin-7-one]
The Emax at 1 µM of the first is lower: 22% for the first, 38% for the second.

First: Cc1nc(OCCCCN2CCN(c3cccc4ccccc34)CC2)nc2[nH]c(=O)c(F)cc12 [Example H5, 6-Fluoro-4-methyl-2-[4-(4-naphthalen-1-yl-piperazin-1-yl)-butoxy]-8H-pyrido[2,3-d]pyrimidin-7-one]
Second: CCc1cccc(N2CCN(CCCCOc3nc(C)c4ccc(=O)[nH]c4n3)CC2)n1 [Example H7, 2-{4-[4-(6-Ethyl-pyridin-2-yl)-piperazin-1-yl]-butoxy}-4-methyl-8H-pyrido[2,3-d]pyrimidin-7-one]
The Emax at 1 µM of the first is lower: 34% for the first, 46% for the second.

For `Cc1nc(OCCCCN2CCN(c3cccc(C(C)C)n3)CC2)nc2[nH]c(=O)ccc12` [Example H6, 2-{4-[4-(6-Isopropyl-pyridin-2-yl)-piperazin-1-yl]-butoxy}-4-methyl-8H-pyrido[2,3-d]pyrimidin-7-one], the Emax at 1 µM was 42%.

Same assay, conditions: Table 2; test compound 1 μM; 1 μM Quinpirole = 100% intrinsic activity

Compared with `O=c1ccc2cnc(OCCCCN3CCN(c4cccc5cccnc45)CC3)nc2[nH]1` [Example G3′, 2-[4-(4-Quinolin-8-yl-piperazin-1-yl)-butoxy]-8H-pyrido[2,3-d]pyrimidin-7-one], `Cc1ccc2cccc(N3CCN(CCCCOc4ncc5ccc(=O)[nH]c5n4)CC3)c2n1` [Example G9′, 2-{4-[4-(2-Methyl-quinolin-8-yl)-piperazin-1-yl]-butoxy}-8H-pyrido[2,3-d]pyrimidin-7-one] is lower in Emax at 1 µM: 28% for the first, 21% for the second.

Going from `O=c1ccc2cnc(OCCCCN3CCN(c4cccc5c4OCC5)CC3)nc2[nH]1` [Example G4′, 2-{4-[4-(2,3-Dihydro-benzofuran-7-yl)-piperazin-1-yl]-butoxy}-8H-pyrido[2,3-d]pyrimidin-7-one] to `CC1(C)CCc2cccc(N3CCN(CCCCOc4ncc5ccc(=O)[nH]c5n4)CC3)c2O1` [Example G6′, 2-{4-[4-(2,2-Dimethyl-chroman-8-yl)-piperazin-1-yl]-butoxy}-8H-pyrido[2,3-d]pyrimidin-7-one], the Emax at 1 µM rises from 13% to 17%.

Going from `O=c1ccc2cnc(OCCCCN3CCN(c4cccc5c4OCCCO5)CC3)nc2[nH]1` [Example G5′, 2-{4-[4-(3,4-Dihydro-2H-benzo[b][1,4]dioxepin-6-yl)-piperazin-1-yl]-butoxy}-8H-pyrido[2,3-d]pyrimidin-7-one] to `Cc1nc(OCCCCN2CCN(c3cccc4c3OCCO4)CC2)nc2[nH]c(=O)ccc12` [Example G10′, 2-{4-[4-(2,3-Dihydro-benzo[1,4]dioxin-5-yl)-piperazin-1-yl]-butoxy}-4-methyl-8H-pyrido[2,3-d]pyrimidin-7-one], the Emax at 1 µM rises from 7% to 18%.

First: O=c1ccc2cnc(OCCCCN3CCN(c4cccc5c4OC(F)(F)O5)CC3)nc2[nH]1 [Example G7′, 2-{4-[4-(2,2-Difluoro-benzo[1,3]dioxol-4-yl)-piperazin-1-yl]-butoxy}-8H-pyrido[2,3-d]pyrimidin-7-one]
Second: CC1(C)Cc2cccc(N3CCN(CCCCOc4ncc5ccc(=O)[nH]c5n4)CC3)c2O1 [Example G8′, 2-{4-[4-(2,2-Dimethyl-2,3-dihydro-benzofuran-7-yl)-piperazin-1-yl]-butoxy}-8H-pyrido[2,3-d]pyrimidin-7-one]
The Emax at 1 µM of the first is higher: 38% for the first, 32% for the second.

Going from `Cc1nc(OCCCCN2CCN(c3cccc4c3OCC4)CC2)nc2[nH]c(=O)ccc12` [Example G11′, 2-{4-[4-(2,3-Dihydro-benzofuran-7-yl)-piperazin-1-yl]-butoxy}-4-methyl-8H-pyrido[2,3-d]pyrimidin-7-one] to `Cc1nc(OCCCCN2CCN(c3cccc4c3NC(=O)CC4)CC2)nc2[nH]c(=O)ccc12` [Example G14′, 4-Methyl-2-{4-[4-(2-oxo-1,2,3,4-tetrahydro-quinolin-8-yl)-piperazin-1-yl]-butoxy}-8H-pyrido[2,3-d]pyrimidin-7-one], the Emax at 1 µM rises from 39% to 44%.

Going from `Cc1nc(OCCCCN2CCN(c3cccc4ccoc34)CC2)nc2[nH]c(=O)ccc12` [Example G12′, 2-[4-(4-Benzofuran-7-yl-piperazin-1-yl)-butoxy]-4-methyl-8H-pyrido[2,3-d]pyrimidin-7-one] to `Cc1nc(OCCCCN2CCN(c3cccc4cccnc34)CC2)nc2[nH]c(=O)ccc12` [Example G15′, 4-Methyl-2-[4-(4-quinolin-8-yl-piperazin-1-yl)-butoxy]-8H-pyrido[2,3-d]pyrimidin-7-one], the Emax at 1 µM rises from 36% to 41%.

First: O=C1CCc2cnc(OCCCCN3CCN(c4cccc5c4OCCC5)CC3)cc2N1 [Example H1′, 7-[4-(4-Chroman-8-yl-piperazin-1-yl)-butoxy]-3,4-dihydro-1H-[1,6]naphthyridin-2-one]
Second: O=C1CCc2cnc(OCCCCN3CCN(c4cccc5c4OCC5)CC3)cc2N1 [Example H2′, 7-{4-[4-(2,3-Dihydro-benzofuran-7-yl)-piperazin-1-yl]-butoxy}-3,4-dihydro-1H-[1,6]naphthyridin-2-one]
The Emax at 1 µM of the first is higher: 22% for the first, 15% for the second.

Going from `O=C1CCc2cnc(OCCCCN3CCN(c4cccc5c4OC(F)(F)C(F)(F)O5)CC3)cc2N1` [Example H3′, 7-{4-[4-(2,2,3,3-Tetrafluoro-2,3-dihydro-benzo[1,4]dioxin-5-yl)-piperazin-1-yl]-butoxy}-3,4-dihydro-1H-[1,6]naphthyridin-2-one] to `O=C1CCc2cnc(OCCCCN3CCN(c4cccc5c4OC(F)(F)O5)CC3)cc2N1` [Example H4′, 7-{4-[4-(2,2-Difluoro-benzo[1,3]dioxol-4-yl)-piperazin-1-yl]-butoxy}-3,4-dihydro-1H-[1,6]naphthyridin-2-one], the Emax at 1 µM falls from 22% to 21%.

Compared with `O=C1CCc2cnc(OCCCCN3CCN(c4cccc5c4OCCO5)CC3)cc2N1` [Example H5′, 7-{4-[4-(2,3-Dihydro-benzo[1,4]dioxin-5-yl)-piperazin-1-yl]-butoxy}-3,4-dihydro-1H-[1,6]naphthyridin-2-one], `O=c1ccc2cnc(OCCCCN3CCN(c4cccc5c4OCCO5)CC3)cc2[nH]1` [Example H7′, 7-{4-[4-(2,3-Dihydro-benzo[1,4]dioxin-5-yl)-piperazin-1-yl]-butoxy}-1H-[1,6]naphthyridin-2-one] is higher in Emax at 1 µM: 14% for the first, 17% for the second.

Compared with `O=c1ccc2cnc(OCCCCN3CCN(c4cccc5c4OCC5)CC3)cc2[nH]1` [Example H6′, 7-{4-[4-(2,3-Dihydro-benzofuran-7-yl)-piperazin-1-yl]-butoxy}-1H-[1,6]naphthyridin-2-one], `O=c1ccc2cnc(OCCCCN3CCN(c4cccc5c4OCCC5)CC3)cc2[nH]1` [Example H8′, 7-[4-(4-Chroman-8-yl-piperazin-1-yl)-butoxy]-1H-[1,6]naphthyridin-2-one] is higher in Emax at 1 µM: 21% for the first, 32% for the second.
